The values below come from US11534493B2, “Pharmaceutical compositions of roflumilast in aqueous blends of water-miscible, pharmaceutically acceptable solvents” (ARCUTIS, INC., priority 2017, dated 2022).

How the values of data set [1] were obtained: Roflumilast (Batch A14367P from Interquim S.A.), 0.0205 grams, was weighed into a liquid scintillation vial. DEGEE (Transcutol P, lot 146063, Gattefosse) was added dropwise with mixing to the vial containing roflumilast. After mixing each addition of DEGEE, the tightly capped vial was returned to a water bath set at 25° C.
0.0111 grams of roflumilast (Batch A14367P from Interquim S.A.) was weighed into a liquid scintillation vial. An equimolar blend of DEGEE (Transcutol P, lot 146063, Gattefosse) and distilled water was prepared and added dropwise with mixing to the vial containing roflumilast. An equimolar blend is 88.3% DEGEE and 11.7% water on a weight/weight percent basis. After mixing each addition of equimolar DEGEE:Water, the tightly capped vial was returned to a water bath set at 25° C.

The procedure of data set [2]: Roflumilast (Batch A14367P from Interquim S.A.), 0.0061 grams, was weighed into a liquid scintillation vial. PG (propylene glycol, Spectrum Chemical lot IEC0004) was added dropwise with mixing to the vial containing roflumilast. After mixing each addition of PG, the tightly capped vial was returned to a water bath set at 25° C.
2.3200 grams of an equimolar blend of PG (Spectrum Chemical lot IEC0004) and distilled water was prepared and added to a scintillation vial containing 0.0012 grams of roflumilast (Batch A14367P from Interquim S.A.). […] An equimolar blend is 80.7% PG and 19.3% water on a weight/weight percent basis.
The source holds these as a separate data set.

Data set [3] in a line: aqueous solubility of roflumilast reported in WO95/01338. In kind it is physicochemical. Conditions: cited 0.53 mg/l (21° C.) value converted to w/w %. From the text:
Roflumilast and its synthesis were described in U.S. Pat. No. 5,712,298 (the “'298 patent”), incorporated herein by reference.* It has long been recognized that pharmaceutical compounds having phosphodiesterase (PDE)-inhibiting properties, such as roflumilast, are useful for treating psoriasis and atopic dermatitis ('298 patent, col 11 lines 52-61) and other chronic inflammatory and allergen-induced dermatoses. For treatment of such dermatoses, roflumilast emulsions, suspensions, gels or solutions for topical application have been described ('298 patent, col 12, lines 37-64). […] This low aqueous solubility has been problematic for the development of parenteral preparations and topical emulsions, suspensions, gels or solutions containing water. In U.S. Pat. No. 9,205,044 (incorporated herein by reference), the poor water solubility of roflumilast was overcome by using an alkoxylated fat, specifically polyoxyethylated 12-hydroxystearic acid, as a co-solvent for parenteral administration.

The structures appear in SMILES notation.

On to `O=C(Nc1c(Cl)cncc1Cl)c1ccc(OC(F)F)c(OCC2CC2)c1` [roflumilast, N-(3,5-dichloropyrid-4-yl)-3-cyclopropylmethoxy-4-difluoromethoxybenzamid-e], for which, in data set [1], the “calculated ideal solubility in equimolar DEGEE:Water” value is 0.019 w/w %, the “observed saturation solubility greater than calculated ideal solubility in equimolar DEGEE:Water” value is reported as 232 fold, the “observed saturation solubility in DEGEE” value turned out to be 7.1 w/w % and the “observed saturation solubility in equimolar DEGEE:Water” value is 4.4 w/w %. In data set [2], the “calculated ideal solubility in equimolar PG:Water” value was 0.0040 w/w %, the “observed saturation solubility greater than calculated ideal solubility in equimolar PG:Water” value was 15 fold, the “observed saturation solubility in PG” value is on record as 0.3 w/w % and the “observed saturation solubility in equimolar PG:Water” value is recorded as 0.06 w/w %. Further, in data set [3], the “saturation solubility of roflumilast in water” value is on record as 0.000053 w/w %.
